Test results published in PubChem BioAssay AID1963425 (Molecular Pharmacology Branch, DTP, NCI, 2024).
pIC50: −log10 of the molar value. Blank lines part the entries; values can stand above or below the molecule they belong to.

Tested on: 323965-272-R-J2-PDC complex spheroid growth, % test/control
Experiment: Anticancer human tumor 323965-272-R-J2-PDC patient-derived pancreatic carcinoma cell line growth inhibition [Asc]
Details: for pIC50: curve of first compound; for viability, T/C: stronger effect = lower value
Method in brief: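 Stromal components (HUVEC and hMSC) are co-assembled with the cancer cells into multicellular spheroids. Drugs are then added singly or paired, at concentrations falling by half-log increments from a clinically achievable maximum, capped at 10 microM without known Cmax.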

[1] = second compound 0.00316 µM, first compound 0.00316 µM
[2] = second compound 0.00316 µM, first compound 0.01 µM
[3] = second compound 0.00316 µM, first compound 0.0316 µM
[4] = second compound 0.00316 µM, first compound 0.1 µM
[5] = second compound 0.00316 µM, first compound 0.316 µM
[6] = second compound 0.00316 µM, first compound 1 µM
[7] = second compound 0.01 µM, first compound 0.00316 µM
[8] = second compound 0.01 µM, first compound 0.01 µM
[9] = second compound 0.01 µM, first compound 0.0316 µM
[10] = second compound 0.01 µM, first compound 0.1 µM
[11] = second compound 0.01 µM, first compound 0.316 µM
[12] = second compound 0.01 µM, first compound 1 µM
[13] = second compound 0.0316 µM, first compound 0.00316 µM
[14] = second compound 0.0316 µM, first compound 0.01 µM
[15] = second compound 0.0316 µM, first compound 0.0316 µM
[16] = second compound 0.0316 µM, first compound 0.1 µM
[17] = second compound 0.0316 µM, first compound 0.316 µM
[18] = second compound 0.0316 µM, first compound 1 µM
[19] = second compound 0.1 µM, first compound 0.00316 µM
[20] = second compound 0.1 µM, first compound 0.01 µM
[21] = second compound 0.1 µM, first compound 0.0316 µM
[22] = second compound 0.1 µM, first compound 0.1 µM
[23] = second compound 0.1 µM, first compound 0.316 µM
[24] = second compound 0.1 µM, first compound 1 µM
[25] = second compound 0.316 µM, first compound 0.00316 µM
[26] = second compound 0.316 µM, first compound 0.01 µM
[27] = second compound 0.316 µM, first compound 0.0316 µM
[28] = second compound 0.316 µM, first compound 0.1 µM
[29] = second compound 0.316 µM, first compound 0.316 µM
[30] = second compound 0.316 µM, first compound 1 µM
[31] = second compound 1 µM, first compound 0.00316 µM
[32] = second compound 1 µM, first compound 0.01 µM
[33] = second compound 1 µM, first compound 0.0316 µM
[34] = second compound 1 µM, first compound 0.1 µM
[35] = second compound 1 µM, first compound 0.316 µM
[36] = second compound 1 µM, first compound 1 µM
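Note: compound exposure lasted 7 days starting three days after spheroid seeding.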
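Throughout, for viability, T/C: 100% = DMSO vehicle control wells with viability set relative to vehicle.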

pIC50 (second compound 0.00316 µM): < 6.00
pIC50 (second compound 0.01 µM): < 6.00
pIC50 (second compound 0.0316 µM): < 6.00
pIC50 (second compound 0.1 µM): < 6.00
pIC50 (second compound 0.316 µM): < 6.00
pIC50 (second compound 1 µM): < 6.00
Structure (SMILES): CCN1CCN(Cc2ccc(Nc3ncc(F)c(-c4cc(F)c5nc(C)n(C(C)C)c5c4)n3)nc2)CC1 + CNC(C)C(=O)NC1CN(S(=O)(=O)c2cccc(S(=O)(=O)N3CCC4CCC(C(=O)NC(c5ccccc5)c5ccccc5)N4C(=O)C(NC(=O)C(C)NC)C3)c2)CCC2CCC(C(=O)NC(c3ccccc3)c3ccccc3)N2C1=O
viability, T/C [1]: 108%
viability, T/C [2]: 88.7%
viability, T/C [3]: 96.8%
viability, T/C [4]: 83.6%
viability, T/C [5]: 81.5%
viability, T/C [6]: 77.2%
viability, T/C [7]: 98.1%
viability, T/C [8]: 95%
viability, T/C [9]: 97.5%
viability, T/C [10]: 70%
viability, T/C [11]: 85.6%
viability, T/C [12]: 79%
viability, T/C [13]: 101%
viability, T/C [14]: 95.3%
viability, T/C [15]: 87.2%
viability, T/C [16]: 76.1%
viability, T/C [17]: 75%
viability, T/C [18]: 72.4%
viability, T/C [19]: 104%
viability, T/C [20]: 106%
viability, T/C [21]: 96.6%
viability, T/C [22]: 76.5%
viability, T/C [23]: 78.4%
viability, T/C [24]: 82.5%
viability, T/C [25]: 102%
viability, T/C [26]: 101%
viability, T/C [27]: 95.4%
viability, T/C [28]: 69.6%
viability, T/C [29]: 70.6%
viability, T/C [30]: 83.6%
viability, T/C [31]: 87.4%
viability, T/C [32]: 85.9%
viability, T/C [33]: 90.6%
viability, T/C [34]: 67.7%
viability, T/C [35]: 79.7%
viability, T/C [36]: 74.2%

pIC50 (second compound 0.00316 µM): < 6.52
pIC50 (second compound 0.01 µM): < 6.52
pIC50 (second compound 0.0316 µM): < 6.52
pIC50 (second compound 0.1 µM): < 6.52
pIC50 (second compound 0.316 µM): < 6.52
pIC50 (second compound 1 µM): < 6.52
Structure (SMILES): NC(=O)C(=Cn1cnc(-c2cc(C(F)(F)F)cc(C(F)(F)F)c2)n1)c1cncnc1 + CNC(C)C(=O)NC1CN(S(=O)(=O)c2cccc(S(=O)(=O)N3CCC4CCC(C(=O)NC(c5ccccc5)c5ccccc5)N4C(=O)C(NC(=O)C(C)NC)C3)c2)CCC2CCC(C(=O)NC(c3ccccc3)c3ccccc3)N2C1=O
viability, T/C (second compound 0.00316 µM, first compound 0.000949 µM): 121%
viability, T/C (second compound 0.00316 µM, first compound 0.003 µM): 120%
viability, T/C (second compound 0.00316 µM, first compound 0.00949 µM): 97.1%
viability, T/C (second compound 0.00316 µM, first compound 0.03 µM): 99.6%
viability, T/C (second compound 0.00316 µM, first compound 0.0949 µM): 70.7%
viability, T/C (second compound 0.00316 µM, first compound 0.3 µM): 76.2%
viability, T/C (second compound 0.01 µM, first compound 0.000949 µM): 103%
viability, T/C (second compound 0.01 µM, first compound 0.003 µM): 108%
viability, T/C (second compound 0.01 µM, first compound 0.00949 µM): 109%
viability, T/C (second compound 0.01 µM, first compound 0.03 µM): 91.1%
viability, T/C (second compound 0.01 µM, first compound 0.0949 µM): 78.8%
viability, T/C (second compound 0.01 µM, first compound 0.3 µM): 62.5%
viability, T/C (second compound 0.0316 µM, first compound 0.000949 µM): 103%
viability, T/C (second compound 0.0316 µM, first compound 0.003 µM): 109%
viability, T/C (second compound 0.0316 µM, first compound 0.00949 µM): 108%
viability, T/C (second compound 0.0316 µM, first compound 0.03 µM): 86.7%
viability, T/C (second compound 0.0316 µM, first compound 0.0949 µM): 74.5%
viability, T/C (second compound 0.0316 µM, first compound 0.3 µM): 61.7%
viability, T/C (second compound 0.1 µM, first compound 0.000949 µM): 105%
viability, T/C (second compound 0.1 µM, first compound 0.003 µM): 104%
viability, T/C (second compound 0.1 µM, first compound 0.00949 µM): 104%
viability, T/C (second compound 0.1 µM, first compound 0.03 µM): 87%
viability, T/C (second compound 0.1 µM, first compound 0.0949 µM): 80.4%
viability, T/C (second compound 0.1 µM, first compound 0.3 µM): 62.5%
viability, T/C (second compound 0.316 µM, first compound 0.000949 µM): 107%
viability, T/C (second compound 0.316 µM, first compound 0.003 µM): 111%
viability, T/C (second compound 0.316 µM, first compound 0.00949 µM): 96.3%
viability, T/C (second compound 0.316 µM, first compound 0.03 µM): 93.6%
viability, T/C (second compound 0.316 µM, first compound 0.0949 µM): 77.1%
viability, T/C (second compound 0.316 µM, first compound 0.3 µM): 62.4%
viability, T/C (second compound 1 µM, first compound 0.000949 µM): 101%
viability, T/C (second compound 1 µM, first compound 0.003 µM): 104%
viability, T/C (second compound 1 µM, first compound 0.00949 µM): 77.3%
viability, T/C (second compound 1 µM, first compound 0.03 µM): 83.7%
viability, T/C (second compound 1 µM, first compound 0.0949 µM): 78.4%
viability, T/C (second compound 1 µM, first compound 0.3 µM): 71%

pIC50 (second compound 0.00316 µM): 7.01
pIC50 (second compound 0.01 µM): 7.11
pIC50 (second compound 0.0316 µM): 7.09
pIC50 (second compound 0.1 µM): 7.03
pIC50 (second compound 0.316 µM): 7.15
pIC50 (second compound 1 µM): 7.27
Structure (SMILES): O=C(c1ccc(F)c(F)c1Nc1ccc(I)cc1F)N1CC(O)([C@@H]2CCCCN2)C1 + CNC(C)C(=O)NC1CN(S(=O)(=O)c2cccc(S(=O)(=O)N3CCC4CCC(C(=O)NC(c5ccccc5)c5ccccc5)N4C(=O)C(NC(=O)C(C)NC)C3)c2)CCC2CCC(C(=O)NC(c3ccccc3)c3ccccc3)N2C1=O
viability, T/C [1]: 117%
viability, T/C [2]: 99.1%
viability, T/C [3]: 77.5%
viability, T/C [4]: 50.1%
viability, T/C [5]: 27.3%
viability, T/C [6]: 18.5%
viability, T/C [7]: 105%
viability, T/C [8]: 90.3%
viability, T/C [9]: 60.8%
viability, T/C [10]: 47.7%
viability, T/C [11]: 28.2%
viability, T/C [12]: 13.2%
viability, T/C [13]: 94.5%
viability, T/C [14]: 96.3%
viability, T/C [15]: 64.3%
viability, T/C [16]: 47.9%
viability, T/C [17]: 25.7%
viability, T/C [18]: 14.4%
viability, T/C [19]: 102%
viability, T/C [20]: 90.9%
viability, T/C [21]: 81.6%
viability, T/C [22]: 46.4%
viability, T/C [23]: 23.6%
viability, T/C [24]: 13.1%
viability, T/C [25]: 110%
viability, T/C [26]: 82.8%
viability, T/C [27]: 71.5%
viability, T/C [28]: 41.8%
viability, T/C [29]: 22%
viability, T/C [30]: 11.3%
viability, T/C [31]: 92.8%
viability, T/C [32]: 85.6%
viability, T/C [33]: 57.3%
viability, T/C [34]: 39%
viability, T/C [35]: 18.8%
viability, T/C [36]: 9.3%
